PubChem BioAssay (NCI)
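Each compound was tested at five concentrations against cells in 96-well plates for 48 hours. At the GI50, growth is halved. The concentration for full growth arrest is given as TGI.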

Key:
Assay in all cases: NCI-60 cell line screen, 48 h
[1] = test system: HCC-2998 colon
[2] = test system: SNB-19 CNS
[3] = test system: TK-10 renal
[4] = test system: LOX IMVI melanoma
[5] = test system: A549 NSCLC
[6] = test system: MALME-3M melanoma
[7] = test system: ACHN renal
[8] = test system: EKVX NSCLC
[9] = test system: HOP-92 NSCLC
[10] = test system: BT-549 breast
[11] = test system: HT29 colon
[12] = test system: NCI-H522 lung
[13] = test system: DU-145 prostate
[14] = test system: OVCAR-5 ovarian
[15] = test system: CAKI-1 renal
[16] = test system: UO-31 renal
[17] = test system: T-47D breast
[18] = test system: 786-0 renal
[19] = test system: HCT-116 colon
[20] = test system: OVCAR-3 ovarian
[21] = test system: SK-MEL-2 melanoma
[22] = test system: UACC-257 melanoma
[23] = test system: NCI-H226 lung
[24] = test system: OVCAR-4 ovarian
[25] = test system: SK-OV-3 ovarian
[26] = test system: HCT-15 colon
[27] = test system: MDA-MB-435
[28] = test system: SW-620 colon
[29] = test system: MOLT-4 leukemia
[30] = test system: PC-3 prostate
[31] = test system: HL-60(TB) leukemia
[32] = test system: SK-MEL-5 melanoma
[33] = test system: RXF 393 renal
[34] = test system: U251 CNS
[35] = test system: SNB-75 CNS
[36] = test system: SF-268 CNS
[37] = test system: UACC-62 melanoma
[38] = test system: KM12 colon
[39] = test system: A498 renal
[40] = test system: CCRF-CEM leukemia
[41] = test system: MCF7 breast
[42] = test system: HOP-62 NSCLC
[43] = test system: SF-539 CNS
[44] = test system: SK-MEL-28 melanoma
[45] = test system: COLO 205 colon
[46] = test system: MDA-MB-231 breast
[47] = test system: NCI/ADR-RES ovarian
[48] = test system: OVCAR-8 ovarian
[49] = test system: SF-295 CNS
[50] = test system: NCI-H460 lung
[51] = test system: HS 578T breast
[52] = test system: SN12C renal
[53] = test system: IGROV1 ovarian

Oc1cc(Cn2cnc3c(Cl)nc(Cl)nc32)ccc1C12CC3CC(CC(C3)C1)C2
GI50 [1]: 16 µM | TGI [1]: 30.4 µM | GI50 [2]: 17.6 µM | TGI [2]: 31.4 µM | GI50 [3]: 19.5 µM | TGI [3]: 38.8 µM | GI50 [4]: 4.12 µM | TGI [4]: 18.6 µM | GI50 [5]: 18.1 µM | TGI [5]: 33.2 µM | GI50 [6]: 11.8 µM | TGI [6]: 27.8 µM | GI50 [7]: 17.9 µM | TGI [7]: 31.7 µM | GI50 [8]: 23.8 µM | TGI [8]: 53.1 µM | GI50 [9]: 14.6 µM | TGI [9]: 27.8 µM | GI50 [10]: 17.5 µM | TGI [10]: 34.4 µM | GI50 [11]: 16 µM | TGI [11]: 29.5 µM | GI50 [12]: 15.2 µM | TGI [12]: 28.5 µM | GI50 [13]: 16.2 µM | TGI [13]: 29.7 µM | GI50 [14]: 20.2 µM | TGI [14]: 45.7 µM | GI50 [15]: 15.4 µM | TGI [15]: 31.3 µM | GI50 [16]: 17.3 µM | TGI [16]: 31.1 µM | GI50 [17]: 21.8 µM | TGI [17]: 80.6 µM | GI50 [18]: 18.5 µM | TGI [18]: 34.4 µM | GI50 [19]: 14 µM | TGI [19]: 26.9 µM | GI50 [20]: 18 µM | TGI [20]: 36.3 µM | GI50 [21]: 18.4 µM | TGI [21]: 38 µM | GI50 [22]: 19 µM | TGI [22]: 39.2 µM | GI50 [23]: 23.3 µM | TGI [23]: 63.7 µM | GI50 [24]: 16.4 µM | TGI [24]: 30 µM | GI50 [25]: 24.7 µM | TGI [25]: 55.1 µM | GI50 [26]: 16.3 µM | TGI [26]: 29.8 µM | GI50 [27]: 19.9 µM | TGI [27]: 48.6 µM | GI50 [28]: 24.6 µM | TGI [28]: 56.8 µM | GI50 [29]: 3.72 µM | TGI [29]: 11.2 µM | GI50 [30]: 15.5 µM | TGI [30]: 28.9 µM | GI50 [31]: 4.36 µM | TGI [31]: 15.7 µM | GI50 [32]: 15 µM | TGI [32]: 32 µM | GI50 [33]: 15.2 µM | TGI [33]: 29.3 µM | GI50 [34]: 16.6 µM | TGI [34]: 30.2 µM | GI50 [35]: 16.4 µM | TGI [35]: 32.2 µM | GI50 [36]: 14.4 µM | TGI [36]: 28 µM | GI50 [37]: 16.8 µM | TGI [37]: 30.5 µM | GI50 [38]: 17.5 µM | TGI [38]: 34.4 µM | GI50 [39]: > 100 µM | TGI [39]: > 100 µM | GI50 [40]: 2.17 µM | TGI [40]: 5.78 µM | GI50 [41]: 15 µM | TGI [41]: 28.3 µM | GI50 [42]: 16.2 µM | TGI [42]: 29.8 µM | GI50 [43]: 23.6 µM | TGI [43]: 45.1 µM | GI50 [44]: 16.9 µM | TGI [44]: 31 µM | GI50 [45]: 19.9 µM | TGI [45]: 37.2 µM | GI50 [46]: 15 µM | TGI [46]: 30.3 µM | GI50 [47]: 21.9 µM | TGI [47]: 57.2 µM | GI50 [48]: 23.2 µM | TGI [48]: 58 µM | GI50 [49]: 20.5 µM | TGI [49]: 47.9 µM | GI50 [50]: 16.4 µM | TGI [50]: 30.2 µM | GI50 [51]: 49.6 µM | TGI [51]: > 100 µM | GI50 [52]: 16.5 µM | TGI [52]: 32.2 µM | GI50 [53]: 15.8 µM | TGI [53]: 30 µM
